Numbers after ± are expanded uncertainties.
Key:
[1] = Liquid, Closed cell (Static) method
[2] = excess molar enthalpy (molar enthalpy of mixing); xn = mol fraction of the nth substance listed; conditions: 298.15 K, 101 kPa, Liquid, Flow calorimetry

SMILES | vapor or sublimation pressure ([1]; 263.15 K) | vapor or sublimation pressure ([1]; 273.15 K) | vapor or sublimation pressure ([1]; 283.15 K) | vapor or sublimation pressure ([1]; 293.15 K) | vapor or sublimation pressure ([1]; 298.15 K) | vapor or sublimation pressure ([1]; 303.15 K) | vapor or sublimation pressure ([1]; 313.15 K) | vapor or sublimation pressure ([1]; 323.15 K) | vapor or sublimation pressure ([1]; 333.15 K) | vapor or sublimation pressure ([1]; 343.15 K) | other results
C#CCCCC [1-hexyne] | 2.721 ± 0.013 kPa | 4.893 ± 0.017 kPa | 8.363 ± 0.023 kPa | 13.67 ± 0.032 kPa | 17.22 ± 0.039 kPa | 21.5 ± 0.047 kPa | 32.65 ± 0.066 kPa | 48.09 ± 0.093 kPa | 68.9 ± 0.13 kPa | 96.32 ± 0.17 kPa | 
C#CCCCC [1-hexyne] + COC(C)(C)C |  |  |  |  |  |  |  |  |  |  | excess molar enthalpy ([2]; x1 = 0.1111): -0.139 ± 0.01 kJ/mol; excess molar enthalpy ([2]; x1 = 0.2113): -0.268 ± 0.01 kJ/mol; excess molar enthalpy ([2]; x1 = 0.3134): -0.37 ± 0.011 kJ/mol; excess molar enthalpy ([2]; x1 = 0.389): -0.42 ± 0.011 kJ/mol; excess molar enthalpy ([2]; x1 = 0.4482): -0.436 ± 0.011 kJ/mol; excess molar enthalpy ([2]; x1 = 0.5204): -0.425 ± 0.011 kJ/mol; excess molar enthalpy ([2]; x1 = 0.6206): -0.377 ± 0.011 kJ/mol; excess molar enthalpy ([2]; x1 = 0.7263): -0.298 ± 0.01 kJ/mol; excess molar enthalpy ([2]; x1 = 0.8179): -0.22 ± 0.01 kJ/mol; excess molar enthalpy ([2]; x1 = 0.9011): -0.142 ± 0.01 kJ/mol
CC#CCCC [2-hexyne] | 1.393 ± 0.01 kPa | 2.608 ± 0.013 kPa | 4.631 ± 0.016 kPa | 7.845 ± 0.023 kPa | 10.05 ± 0.027 kPa | 12.75 ± 0.033 kPa | 19.99 ± 0.047 kPa | 30.32 ± 0.067 kPa | 44.66 ± 0.095 kPa | 64.09 ± 0.13 kPa | 
CC#CCCC [2-hexyne] + COC(C)(C)C |  |  |  |  |  |  |  |  |  |  | excess molar enthalpy ([2]; x1 = 0.1527): -0.06 ± 0.01 kJ/mol; excess molar enthalpy ([2]; x1 = 0.2965): -0.11 ± 0.01 kJ/mol; excess molar enthalpy ([2]; x1 = 0.4852): -0.15 ± 0.01 kJ/mol; excess molar enthalpy ([2]; x1 = 0.6624): -0.147 ± 0.01 kJ/mol; excess molar enthalpy ([2]; x1 = 0.7708): -0.12 ± 0.01 kJ/mol; excess molar enthalpy ([2]; x1 = 0.8513): -0.085 ± 0.01 kJ/mol
COC(C)(C)C [2-methoxy-2-methylpropane] | 6.252 ± 0.02 kPa | 10.64 ± 0.027 kPa | 17.31 ± 0.039 kPa | 27.06 ± 0.056 kPa | 33.39 ± 0.068 kPa | 40.86 ± 0.082 kPa | 59.81 ± 0.11 kPa | 85.15 ± 0.16 kPa | 118.27 ± 0.21 kPa | 160.66 ± 0.28 kPa | 
